# Measured values from the supplement of paper PMC10307832.
# Columns and labels:
# Experiment in all cases: relative viability (nuclei count vs DMSO), 5 days (fraction); higher = more cells survive
# Carfilzomib + Luminespib = compound: CC(C)C[C@H](NC(=O)[C@H](CCc1ccccc1)NC(=O)CN1CCOCC1)C(=O)N[C@@H](Cc1ccccc1)C(=O)N[C@@H](CC(C)C)C(=O)[C@@]1(C)CO1 [Carfilzomib] + CCNC(=O)c1noc(-c2cc(C(C)C)c(O)cc2O)c1-c1ccc(CN2CCOCC2)cc1 [Luminespib] (partner 0.01 µM)
# Outline: (§1)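 Five library-drug doses in √10 steps were combined with a fixed anchor-drug dose, or a single drug was given alone, by pin tool to lung cancer cell lines in 1536-well plates the day after seeding. Nuclei were stained and counted after 5 days. Relative viability is the nuclei count in treated wells over that in vehicle wells, taken as the median of duplicate plates.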
# Carfilzomib + Dasatinib = compound: CC(C)C[C@H](NC(=O)[C@H](CCc1ccccc1)NC(=O)CN1CCOCC1)C(=O)N[C@@H](Cc1ccccc1)C(=O)N[C@@H](CC(C)C)C(=O)[C@@]1(C)CO1 [Carfilzomib] + Cc1nc(Nc2ncc(C(=O)Nc3c(C)cccc3Cl)s2)cc(N2CCN(CCO)CC2)n1 [Dasatinib] (partner 0.075 µM)
# Outline: as §1
# Olaparib + Foretinib = compound: O=C(c1cc(Cc2n[nH]c(=O)c3ccccc23)ccc1F)N1CCN(C(=O)C2CC2)CC1 [Olaparib] + COc1cc2c(Oc3ccc(NC(=O)C4(C(=O)Nc5ccc(F)cc5)CC4)cc3F)ccnc2cc1OCCCN1CCOCC1 [Foretinib] (partner 0.25 µM)
# Outline: as §1
# Olaparib + Tozasertib = compound: O=C(c1cc(Cc2n[nH]c(=O)c3ccccc23)ccc1F)N1CCN(C(=O)C2CC2)CC1 [Olaparib] + Cc1cc(Nc2cc(N3CCN(C)CC3)nc(Sc3ccc(NC(=O)C4CC4)cc3)n2)n[nH]1 [Tozasertib] (partner 0.1 µM)
# Outline: as §1
Cell Line,relative viability (Carfilzomib + Luminespib; first compound 0.001 µM),relative viability (Carfilzomib + Luminespib; first compound 0.003162 µM),relative viability (Carfilzomib + Luminespib; first compound 0.01 µM),relative viability (Carfilzomib + Luminespib; first compound 0.03162 µM),relative viability (Carfilzomib + Luminespib; first compound 0.1 µM),relative viability (Carfilzomib + Dasatinib; first compound 0.001 µM),relative viability (Carfilzomib + Dasatinib; first compound 0.003162 µM),relative viability (Carfilzomib + Dasatinib; first compound 0.01 µM),relative viability (Carfilzomib + Dasatinib; first compound 0.03162 µM),relative viability (Carfilzomib + Dasatinib; first compound 0.1 µM),relative viability (Olaparib + Foretinib; first compound 0.08 µM),relative viability (Olaparib + Foretinib; first compound 0.253 µM),relative viability (Olaparib + Foretinib; first compound 2.53 µM),relative viability (Olaparib + Foretinib; first compound 8 µM),relative viability (Olaparib + Tozasertib; first compound 0.08 µM),relative viability (Olaparib + Tozasertib; first compound 0.253 µM),relative viability (Olaparib + Tozasertib; first compound 2.53 µM),relative viability (Olaparib + Tozasertib; first compound 8 µM)
NCI-H596,1.16,1.05,1.14,0.354,0.195,0.607,0.583,0.52,0.381,0.174,0.927,0.82,0.828,0.534,0.962,0.707,0.813,0.617
NCI-H647,0.203,0.143,0.2,0.0957,0.0461,0.198,0.21,0.149,0.0266,0.0232,1.19,1.04,1.13,1.07,0.253,0.258,0.407,0.255
NCI-H650,–,0.866,0.636,0.746,0.182,–,0.515,0.457,0.359,0.164,1.11,1.02,0.909,0.794,0.974,0.72,0.656,0.541
NCI-H661,0.93,0.967,0.933,0.866,0.291,0.911,1.07,1.03,0.72,0.172,1.16,0.97,0.948,0.775,0.346,0.355,0.34,0.343
NCI-H727,0.32,0.436,0.294,0.498,0.201,0.386,0.333,0.491,0.216,0.174,0.843,1.06,0.911,0.703,0.704,0.581,0.674,0.486
NCI-H838,0.27,0.255,0.301,0.19,0.13,0.321,0.333,0.291,0.267,0.182,1.18,0.921,1.02,1.01,0.277,0.239,0.265,0.269
NCI-H1355,0.723,0.791,0.731,0.606,0.238,0.628,0.785,0.686,0.382,0.264,1.12,0.941,1,0.832,0.697,0.552,0.562,0.444
NCI-H1395,0.594,0.783,0.66,0.561,0.309,0.411,0.426,0.417,0.36,0.314,1.04,0.87,0.842,0.563,0.816,0.657,0.598,0.548
NCI-H1437,1.08,1.24,1.11,0.94,0.249,0.28,0.483,0.419,0.257,0.133,1.3,1.12,1.08,0.914,0.424,0.393,0.394,0.379
